{"source": "PubChem BioAssay AID1919013", "about": "(Molecular Pharmacology Branch, DTP, NCI, 2023)", "tested_on": "LG0703-F498-PDC complex spheroid growth", "test": "Anticancer human tumor LG0703-F498-PDC patient-derived lung adenocarcinoma cell line growth inhibition [AhR]", "details": "for viability, T/C: stronger effect = lower value", "method_in_brief": "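Complex tumor spheroids co-cultured with HUVEC and human MSC stroma; AhR antagonists tested in combination with standard-of-care and investigational agents. Top concentration at or near clinical Cmax (else 10 microM), half-log dilutions; growth expressed as percent test/control.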", "key": {"[1]": {"details": "curve of first compound, second compound 0.1 µM"}, "[2]": {"details": "curve of first compound, second compound 0.316 µM"}, "[3]": {"details": "curve of first compound, second compound 1 µM"}, "[4]": {"details": "curve of first compound, second compound 3.16 µM"}, "[5]": {"details": "curve of first compound, second compound 10 µM"}, "[6]": {"details": "second compound 0.1 µM, first compound 0.0316 µM"}, "[7]": {"details": "second compound 0.1 µM, first compound 0.1 µM"}, "[8]": {"details": "second compound 0.1 µM, first compound 0.316 µM"}, "[9]": {"details": "second compound 0.1 µM, first compound 1 µM"}, "[10]": {"details": "second compound 0.1 µM, first compound 3.16 µM"}, "[11]": {"details": "second compound 0.1 µM, first compound 10 µM"}, "[12]": {"details": "second compound 0.316 µM, first compound 0.0316 µM"}, "[13]": {"details": "second compound 0.316 µM, first compound 0.1 µM"}, "[14]": {"details": "second compound 0.316 µM, first compound 0.316 µM"}, "[15]": {"details": "second compound 0.316 µM, first compound 1 µM"}, "[16]": {"details": "second compound 0.316 µM, first compound 3.16 µM"}, "[17]": {"details": "second compound 0.316 µM, first compound 10 µM"}, "[18]": {"details": "second compound 1 µM, first compound 0.0316 µM"}, "[19]": {"details": "second compound 1 µM, first compound 0.1 µM"}, "[20]": {"details": "second compound 1 µM, first compound 0.316 µM"}, "[21]": {"details": "second compound 1 µM, first compound 1 µM"}, "[22]": {"details": "second compound 1 µM, first compound 3.16 µM"}, "[23]": {"details": "second compound 1 µM, first compound 10 µM"}, "[24]": {"details": "second compound 3.16 µM, first compound 0.0316 µM"}, "[25]": {"details": "second compound 3.16 µM, first compound 0.1 µM"}, "[26]": {"details": "second compound 3.16 µM, first compound 0.316 µM"}, "[27]": {"details": "second compound 3.16 µM, first compound 1 µM"}, "[28]": {"details": "second compound 3.16 µM, first compound 3.16 µM"}, "[29]": {"details": "second compound 3.16 µM, first compound 10 µM"}, "[30]": {"details": "second compound 10 µM, first compound 0.0316 µM"}, "[31]": {"details": "second compound 10 µM, first compound 0.1 µM"}, "[32]": {"details": "second compound 10 µM, first compound 0.316 µM"}, "[33]": {"details": "second compound 10 µM, first compound 1 µM"}, "[34]": {"details": "second compound 10 µM, first compound 3.16 µM"}, "[35]": {"details": "second compound 10 µM, first compound 10 µM"}}, "note": "Where “and” joins values, the source holds several entries; their conditions need not be identical. Identical values can stand only once.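 Also: luminescence taken as a proxy for viable cell amount.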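 For viability, T/C in this document: percent of DMSO vehicle control where 100% means growth equal to vehicle.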"}
{"smiles": "CC1(C)CCC(CN2CCN(c3ccc(C(=O)NS(=O)(=O)c4ccc(NCC5CCOCC5)c([N+](=O)[O-])c4)c(Oc4cnc5[nH]ccc5c4)c3)CC2)=C(c2ccc(Cl)cc2)C1", "note": "+ CC(CO)NC(=O)c1cc(-c2ccc(Cl)cc2)nn(-c2cnn(C)c2)c1=O", "values": [{"measurement": "IC50", "setting": "[1]", "value": 5.91, "unit": "µM"}, {"measurement": "IC50", "setting": "[2]", "value": 5.65, "unit": "µM"}, {"measurement": "IC50", "setting": "[3]", "value": 5.8, "unit": "µM"}, {"measurement": "IC50", "setting": "[4]", "value": 5.48, "unit": "µM"}, {"measurement": "IC50", "setting": "[5]", "value": 5.13, "unit": "µM"}, {"measurement": "viability, T/C", "setting": "[6]", "value": 92.1, "unit": "%"}, {"measurement": "viability, T/C", "setting": "[7]", "value": 99.7, "unit": "%"}, {"measurement": "viability, T/C", "setting": "[8]", "value": 89.5, "unit": "%"}, {"measurement": "viability, T/C", "setting": "[9]", "value": 85.6, "unit": "%"}, {"measurement": "viability, T/C", "setting": "[10]", "value": 87.4, "unit": "%"}, {"measurement": "viability, T/C", "setting": "[11]", "value": 18.4, "unit": "%"}, {"measurement": "viability, T/C", "setting": "[12]", "value": 106, "unit": "%"}, {"measurement": "viability, T/C", "setting": "[13]", "value": 108, "unit": "%"}, {"measurement": "viability, T/C", "setting": "[14]", "value": 86.8, "unit": "%"}, {"measurement": "viability, T/C", "setting": "[15]", "value": 82.4, "unit": "%"}, {"measurement": "viability, T/C", "setting": "[16]", "value": 86, "unit": "%"}, {"measurement": "viability, T/C", "setting": "[17]", "value": 20.5, "unit": "%"}, {"measurement": "viability, T/C", "setting": "[18]", "value": 85.6, "unit": "%"}, {"measurement": "viability, T/C", "setting": "[19]", "value": 97.4, "unit": "%"}, {"measurement": "viability, T/C", "setting": "[20]", "value": 90.3, "unit": "%"}, {"measurement": "viability, T/C", "setting": "[21]", "value": 92.7, "unit": "%"}, {"measurement": "viability, T/C", "setting": "[22]", "value": 85.4, "unit": "%"}, {"measurement": "viability, T/C", "setting": "[23]", "value": 18.2, "unit": "%"}, {"measurement": "viability, T/C", "setting": "[24]", "value": 82.2, "unit": "%"}, {"measurement": "viability, T/C", "setting": "[25]", "value": 80.1, "unit": "%"}, {"measurement": "viability, T/C", "setting": "[26]", "value": 90.1, "unit": "%"}, {"measurement": "viability, T/C", "setting": "[27]", "value": 90.2, "unit": "%"}, {"measurement": "viability, T/C", "setting": "[28]", "value": 78.7, "unit": "%"}, {"measurement": "viability, T/C", "setting": "[29]", "value": 18.3, "unit": "%"}, {"measurement": "viability, T/C", "setting": "[30]", "value": 75.8, "unit": "%"}, {"measurement": "viability, T/C", "setting": "[31]", "value": 80.1, "unit": "%"}, {"measurement": "viability, T/C", "setting": "[32]", "value": 77.2, "unit": "%"}, {"measurement": "viability, T/C", "setting": "[33]", "value": 78.2, "unit": "%"}, {"measurement": "viability, T/C", "setting": "[34]", "value": 73.2, "unit": "%"}, {"measurement": "viability, T/C", "setting": "[35]", "value": 17.9, "unit": "%"}]}
{"smiles": "CC(C)c1c(-c2ccccc2)nc2c(C#N)c[nH]n2c1=O", "values": [{"measurement": "viability, T/C", "setting": "compound 0.0316 µM", "value": "101% and 99.1% and 108%"}, {"measurement": "viability, T/C", "setting": "compound 0.1 µM", "value": "96.1% and 98.3% and 103%"}, {"measurement": "viability, T/C", "setting": "compound 0.316 µM", "value": "105% and 107% and 103%"}, {"measurement": "viability, T/C", "setting": "compound 1 µM", "value": "87% and 102% and 104%"}, {"measurement": "viability, T/C", "setting": "compound 3.16 µM", "value": "88.2% and 91.2% and 91.7%"}, {"measurement": "viability, T/C", "setting": "compound 10 µM", "value": "99.6% and 90.7% and 93.6%"}, {"measurement": "IC50", "setting": "curve of compound", "value": "> 10", "unit": "µM"}]}
{"smiles": "Nc1ccn(C2OC(CO)C(O)C2(F)F)c(=O)n1", "note": "(centres undefined)", "values": [{"measurement": "viability, T/C", "setting": "compound 0.0316 µM", "value": "38% and 42% and 41.4%"}, {"measurement": "viability, T/C", "setting": "compound 0.1 µM", "value": "37.1% and 44.8% and 35.2%"}, {"measurement": "viability, T/C", "setting": "compound 0.316 µM", "value": "35.5% and 47.5% and 34.7%"}, {"measurement": "viability, T/C", "setting": "compound 1 µM", "value": "32.2% and 38.6% and 33.6%"}, {"measurement": "viability, T/C", "setting": "compound 3.16 µM", "value": "26.9% and 34.3% and 30.5%"}, {"measurement": "viability, T/C", "setting": "compound 10 µM", "value": "20.3% and 28.3% and 21.4%"}, {"measurement": "IC50", "setting": "curve of compound", "value": "< 0.0316", "unit": "µM"}]}
{"smiles": "NS(=O)(=O)OCC1CC(n2ccc3c(NC4CCc5ccccc54)ncnc32)CC1O", "note": "(centres undefined) + Cc1ccccc1N=Nc1ccc(NC(=O)c2ccnn2C)c(C)c1", "values": [{"measurement": "IC50", "setting": "[1]", "value": 7.52, "unit": "µM"}, {"measurement": "IC50", "setting": "[2]", "value": 6.76, "unit": "µM"}, {"measurement": "IC50", "setting": "[3]", "value": 3.06, "unit": "µM"}, {"measurement": "IC50", "setting": "[4]", "value": 1.08, "unit": "µM"}, {"measurement": "IC50", "setting": "[5]", "value": 1.31, "unit": "µM"}, {"measurement": "viability, T/C", "setting": "[6]", "value": 100, "unit": "%"}, {"measurement": "viability, T/C", "setting": "[7]", "value": 94.1, "unit": "%"}, {"measurement": "viability, T/C", "setting": "[8]", "value": 97.9, "unit": "%"}, {"measurement": "viability, T/C", "setting": "[9]", "value": 90.8, "unit": "%"}, {"measurement": "viability, T/C", "setting": "[10]", "value": 64.4, "unit": "%"}, {"measurement": "viability, T/C", "setting": "[11]", "value": 45.2, "unit": "%"}, {"measurement": "viability, T/C", "setting": "[12]", "value": 102, "unit": "%"}, {"measurement": "viability, T/C", "setting": "[13]", "value": 99.8, "unit": "%"}, {"measurement": "viability, T/C", "setting": "[14]", "value": 103, "unit": "%"}, {"measurement": "viability, T/C", "setting": "[15]", "value": 81.7, "unit": "%"}, {"measurement": "viability, T/C", "setting": "[16]", "value": 68.5, "unit": "%"}, {"measurement": "viability, T/C", "setting": "[17]", "value": 41, "unit": "%"}, {"measurement": "viability, T/C", "setting": "[18]", "value": 96, "unit": "%"}, {"measurement": "viability, T/C", "setting": "[19]", "value": 102, "unit": "%"}, {"measurement": "viability, T/C", "setting": "[20]", "value": 99, "unit": "%"}, {"measurement": "viability, T/C", "setting": "[21]", "value": 74.4, "unit": "%"}, {"measurement": "viability, T/C", "setting": "[22]", "value": 51.5, "unit": "%"}, {"measurement": "viability, T/C", "setting": "[23]", "value": 38.4, "unit": "%"}, {"measurement": "viability, T/C", "setting": "[24]", "value": 93.2, "unit": "%"}, {"measurement": "viability, T/C", "setting": "[25]", "value": 99.6, "unit": "%"}, {"measurement": "viability, T/C", "setting": "[26]", "value": 67, "unit": "%"}, {"measurement": "viability, T/C", "setting": "[27]", "value": 55.6, "unit": "%"}, {"measurement": "viability, T/C", "setting": "[28]", "value": 42.1, "unit": "%"}, {"measurement": "viability, T/C", "setting": "[29]", "value": 39.6, "unit": "%"}, {"measurement": "viability, T/C", "setting": "[30]", "value": 100, "unit": "%"}, {"measurement": "viability, T/C", "setting": "[31]", "value": 82.7, "unit": "%"}, {"measurement": "viability, T/C", "setting": "[32]", "value": 63.7, "unit": "%"}, {"measurement": "viability, T/C", "setting": "[33]", "value": 54.5, "unit": "%"}, {"measurement": "viability, T/C", "setting": "[34]", "value": 41.4, "unit": "%"}, {"measurement": "viability, T/C", "setting": "[35]", "value": 32, "unit": "%"}]}
